This assay deals with Plasmodium berghei. Briefly: Luciferase/luciferin-expressing antifolate-resistant parasites were used to infect a culture of HepG2 cells that were pre-incubated with compounds. Infected hepatocytes emit light due to the luciferase reaction. Assay results are presented as the percent inhibition of light emission compared to control. […]. The settings on record: sporozoite; for IC90: read-out: LUCIFERASE INFECTION ASSAY - IC90. The format is functional.

pIC50: −log10 of the molar value.

This is an account of results in ChEMBL document CHEMBL4483862, “Open-source discovery of chemical leads for next-generation chemoprotective antimalarials” (2018).

With `CCn1nc(C)cc1-c1nnc(Sc2ncc([N+](=O)[O-])s2)n1C`, the IC90 was 8.02 µM. Moreover, the pIC50 (FFLUC_HILL_SLOPE 4.24, FFLUC_R_SQUARED 0.134, HEPG2TOX_HILL_SLOPE 11.7, HEPG2TOX_R_SQUARED 0.968, PBLUC_HILL_SLOPE 3.63, PBLUC_R_SQUARED 0.242, read-out: LUCIFERASE INFECTION ASSAY - IC50) is 5.36.
In the case of `O=C1NC(c2ccccc2)=C(c2nc3ccccc3s2)C(c2cccs2)N1` (configuration not stated), the IC90 was over 10 µM. In addition, the pIC50 (FFLUC_HILL_SLOPE 4.26, FFLUC_R_SQUARED 0.397, PBLUC_HILL_SLOPE 0.406, PBLUC_R_SQUARED 0.487, read-out: LUCIFERASE INFECTION ASSAY - IC50) was 5.41.
Take `Cc1ccc2c(CSc3nc(N)c(C#N)cc3C#N)cc(=O)oc2c1C`: the 90% effect concentration (IC90) was 2.94 µM. Further, the pIC50 (FFLUC_HILL_SLOPE 4.09, FFLUC_R_SQUARED 0.386, HEPG2TOX_HILL_SLOPE 1.27, HEPG2TOX_R_SQUARED 0.917, PBLUC_HILL_SLOPE 1.89, PBLUC_R_SQUARED 0.826, read-out: LUCIFERASE INFECTION ASSAY - IC50) was 6.04.
Regarding `CC(=O)Nc1ccc(/C=C2\COc3c(Cl)cc(Cl)cc3C2=O)cc1`, the concentration for an effect of 90% (IC90) is over 10 µM. Further, the pIC50 (FFLUC_HILL_SLOPE 4.35, FFLUC_R_SQUARED 0.359, read-out: LUCIFERASE INFECTION ASSAY - IC50) was under 5.00.
In the case of `C=CCN(c1ccccc1)S(=O)(=O)c1cccc(C(=O)Nc2ccc(CCCC)cc2)c1`, the 90% effect concentration (IC90) was over 10 µM. Also, where the note is “FFLUC_HILL_SLOPE 3.89, FFLUC_R_SQUARED 0.431, PBLUC_HILL_SLOPE 2.64, PBLUC_R_SQUARED 0.773, read-out: LUCIFERASE INFECTION ASSAY - IC50”, the pIC50 is 5.23.
Turning to `Cc1cc(NC(=O)C(Nc2ccc(N3CCCC3)c(C)c2)c2ccccc2)no1` (configuration not stated), the IC90 was over 10 µM. The pIC50 (FFLUC_HILL_SLOPE 3.98, FFLUC_R_SQUARED 0.653, PBLUC_HILL_SLOPE 2, PBLUC_R_SQUARED 0.333, read-out: LUCIFERASE INFECTION ASSAY - IC50) is under 5.00.
As to `Cc1cc(CN(C)CC(=O)Nc2sc3c(c2C(=O)Nc2ccc(Cl)cc2)CCCC3)no1`, the IC90 was over 10 µM. In addition, the pIC50 (FFLUC_HILL_SLOPE 4.26, FFLUC_R_SQUARED 0.612, PBLUC_HILL_SLOPE 24.8, PBLUC_R_SQUARED 0.242, read-out: LUCIFERASE INFECTION ASSAY - IC50) was 5.04.
Take `CN(C)c1ccc(C(=O)Nc2cnc3ccccc3c2)cc1`: the IC90 is over 10 µM. Moreover, the pIC50 (FFLUC_HILL_SLOPE 4.08, FFLUC_R_SQUARED 0.429, HEPG2TOX_HILL_SLOPE 2.09, HEPG2TOX_R_SQUARED 0.742, PBLUC_HILL_SLOPE 0.628, PBLUC_R_SQUARED 0.448, read-out: LUCIFERASE INFECTION ASSAY - IC50) is 6.26.
Turning to `Cc1ccc(C2=NN=C/C2=N\Nc2cc(Cl)cc(Cl)c2)cc1`, the IC90 was determined as 3.57 µM. Moreover, the pIC50 (FFLUC_HILL_SLOPE 4.14, FFLUC_R_SQUARED 0.778, HEPG2TOX_HILL_SLOPE 3.13, HEPG2TOX_R_SQUARED 0.962, PBLUC_HILL_SLOPE 34.3, PBLUC_R_SQUARED 0.21, read-out: LUCIFERASE INFECTION ASSAY - IC50) is 5.48.
Regarding `O=C(Nc1ccc(Oc2cc(C(F)(F)F)cc(C(F)(F)F)c2)cc1)Nc1ccc(OC(F)(F)F)cc1`, the IC90 is 0.304 µM. Moreover, for the setting “FFLUC_HILL_SLOPE 4.18, FFLUC_R_SQUARED 0.0377, HEPG2TOX_HILL_SLOPE 3.88, HEPG2TOX_R_SQUARED 0.972, PBLUC_HILL_SLOPE 90.6, PBLUC_R_SQUARED 0.773, read-out: LUCIFERASE INFECTION ASSAY - IC50”, the pIC50 was 6.53.
As to `Oc1c(C(Nc2ccccn2)c2ccsc2)cc(Cl)c2cccnc12` (configuration not stated), the IC90 was over 8.97 µM. For the same compound, the pIC50 (FFLUC_HILL_SLOPE 4.25, FFLUC_R_SQUARED 0.273, HEPG2TOX_HILL_SLOPE 7.18, HEPG2TOX_R_SQUARED 0.784, PBLUC_HILL_SLOPE 2.69, PBLUC_R_SQUARED 0.266, read-out: LUCIFERASE INFECTION ASSAY - IC50) is 5.40.
Regarding `CCn1cc(C(=O)OCC(=O)N2N=C3/C(=C/c4ccccc4)CCCC3C2c2ccccc2)c(=O)c2ccc(C)nc21` (configuration not stated), the IC90 stood at 9.47 µM. For the setting “FFLUC_HILL_SLOPE 4.43, FFLUC_R_SQUARED 0.284, HEPG2TOX_HILL_SLOPE 6.55, HEPG2TOX_R_SQUARED 0.133, PBLUC_HILL_SLOPE 3.84, PBLUC_R_SQUARED 0.345, read-out: LUCIFERASE INFECTION ASSAY - IC50”, the pIC50 is 5.27.
For the compound `COc1ccc(OC)c(-c2csc(NC(=O)c3c(C)nc(C(C)C)nc3SC)n2)c1`, the IC90 is over 10 µM. In addition, for the setting “FFLUC_HILL_SLOPE 4.18, FFLUC_R_SQUARED 0.209, HEPG2TOX_HILL_SLOPE 6.05, HEPG2TOX_R_SQUARED 0.136, PBLUC_HILL_SLOPE 1.9, PBLUC_R_SQUARED 0.115, read-out: LUCIFERASE INFECTION ASSAY - IC50”, the pIC50 was under 5.00.
For `CC(C)c1ccc(S(=O)(=O)c2ccc(NNC(=O)c3ccccc3OCc3ccc(Cl)cc3)cc2)cc1`, the IC90 was over 10 µM. For the same compound, the pIC50 (FFLUC_HILL_SLOPE 4.22, FFLUC_R_SQUARED 0.402, PBLUC_HILL_SLOPE 10.9, PBLUC_R_SQUARED 0.175, read-out: LUCIFERASE INFECTION ASSAY - IC50) is 5.07.
For `O=C(Nc1ccc(SC(F)(F)F)cc1)Nc1ccc(Oc2ccc(Cl)cc2Cl)nc1`, the IC90 stood at 5.98 µM. In addition, under “FFLUC_HILL_SLOPE 4.22, FFLUC_R_SQUARED 0.441, HEPG2TOX_HILL_SLOPE 15.8, HEPG2TOX_R_SQUARED 0.933, PBLUC_HILL_SLOPE 1.66, PBLUC_R_SQUARED 0.482, read-out: LUCIFERASE INFECTION ASSAY - IC50”, the pIC50 is 5.80.
As for `Oc1c(C(c2ccc(Cl)cc2)c2cc(Cl)c3cccnc3c2O)cc(Cl)c2cccnc12`, the IC90 was found to be 2.32 µM. For the same compound, the pIC50 (FFLUC_HILL_SLOPE 4.28, FFLUC_R_SQUARED 0.979, HEPG2TOX_HILL_SLOPE 0.496, HEPG2TOX_R_SQUARED 0.799, PBLUC_HILL_SLOPE 1.82, PBLUC_R_SQUARED 0.848, read-out: LUCIFERASE INFECTION ASSAY - IC50) was 6.16.
For the compound `CN(C)c1cccc(-c2cnc3sc(NCc4ccc(F)cc4)nn23)c1`, the IC90 is over 8.98 µM. The pIC50 (FFLUC_HILL_SLOPE 4.01, FFLUC_R_SQUARED 0.615, PBLUC_HILL_SLOPE 7.46, PBLUC_R_SQUARED 0.677, read-out: LUCIFERASE INFECTION ASSAY - IC50) was 5.11.
On to `Cc1ccc(C2=NN(C(=O)c3ccccc3)C(c3ccccc3O)C2)cc1` (configuration not stated), for which the IC90 was found to be 8.37 µM. The pIC50 (FFLUC_HILL_SLOPE 4.22, FFLUC_R_SQUARED 0.285, HEPG2TOX_HILL_SLOPE 3.02, HEPG2TOX_R_SQUARED 0.969, PBLUC_HILL_SLOPE 1.84, PBLUC_R_SQUARED 0.813, read-out: LUCIFERASE INFECTION ASSAY - IC50) was 5.60.
`CC(C)NC(=O)N1CCCC(C(=O)Nc2nc3ccccc3[nH]2)C1` (configuration not stated): the IC90 was 4 µM. Further, the pIC50 (FFLUC_HILL_SLOPE 4.02, FFLUC_R_SQUARED 0.256, PBLUC_HILL_SLOPE 1.51, PBLUC_R_SQUARED 0.42, read-out: LUCIFERASE INFECTION ASSAY - IC50) was 6.03.
In the case of `NC(=NNC(=S)Nc1ccc(Cl)cc1)c1ccccn1`, the IC90 was over 10.8 µM. The pIC50 (FFLUC_HILL_SLOPE 4.43, FFLUC_R_SQUARED 0.823, PBLUC_HILL_SLOPE 0.754, PBLUC_R_SQUARED 0.703, read-out: LUCIFERASE INFECTION ASSAY - IC50) was 5.77.
Take `Cc1ccc(C(C#N)c2ccc(NN)nn2)cc1` (configuration not stated): the IC90 was over 13.8 µM. Further, the pIC50 (FFLUC_HILL_SLOPE 3.94, FFLUC_R_SQUARED 0.836, read-out: LUCIFERASE INFECTION ASSAY - IC50) is under 4.86.
Take `Cc1cccc(NC(=O)CN2C(=O)/C(=C(/C#N)c3nc4ccccc4[nH]3)c3ccccc32)c1`: the IC90 is over 10 µM. Moreover, the negative logarithm of the IC50 (pIC50) (FFLUC_HILL_SLOPE 4.46, FFLUC_R_SQUARED 0.474, HEPG2TOX_HILL_SLOPE 6.44, HEPG2TOX_R_SQUARED 0.532, PBLUC_HILL_SLOPE 2.02, PBLUC_R_SQUARED 0.59, read-out: LUCIFERASE INFECTION ASSAY - IC50) was 5.25.
On to `O=C1C(c2ccccc2)=C(Nc2cc(C(F)(F)F)cc(C(F)(F)F)c2)c2ccccc21`, for which the IC90 came out at 0.879 µM. Further, the pIC50 (FFLUC_HILL_SLOPE 4.26, FFLUC_R_SQUARED 0.731, HEPG2TOX_HILL_SLOPE 18.3, HEPG2TOX_R_SQUARED 0.933, PBLUC_HILL_SLOPE 2.24, PBLUC_R_SQUARED 0.855, read-out: LUCIFERASE INFECTION ASSAY - IC50) was 6.48.
As for `CCc1cccc(CC)c1N(C(C)=O)c1nc(/C=C/C(=O)c2cc3ccccc3o2)cs1`, the IC90 turned out to be 6.49 µM. Also, the negative logarithm of the IC50 (pIC50) (FFLUC_HILL_SLOPE 3.93, FFLUC_R_SQUARED 0.771, PBLUC_HILL_SLOPE 5.3, PBLUC_R_SQUARED 0.865, read-out: LUCIFERASE INFECTION ASSAY - IC50) is 5.37.
As to `N#Cc1nc(-c2ccccc2)nc2[nH]c(-c3ccccc3)c(C#N)c12`, the IC90 worked out at 9.81 µM. The pIC50 (FFLUC_HILL_SLOPE 4.02, FFLUC_R_SQUARED 0.58, HEPG2TOX_HILL_SLOPE 1.18, HEPG2TOX_R_SQUARED 0.976, PBLUC_HILL_SLOPE 16.6, PBLUC_R_SQUARED 0.228, read-out: LUCIFERASE INFECTION ASSAY - IC50) is 5.07.
For `C=CCNc1sc(C(=O)/C(C#N)=C2\Nc3ccccc3S2)c(N)c1C(=O)Nc1ccc(Cl)cc1`, the IC90 was 4.13 µM. Where the note is “FFLUC_HILL_SLOPE 4, FFLUC_R_SQUARED 0.164, HEPG2TOX_HILL_SLOPE 6.65, HEPG2TOX_R_SQUARED 0.57, PBLUC_HILL_SLOPE 11, PBLUC_R_SQUARED 0.696, read-out: LUCIFERASE INFECTION ASSAY - IC50”, the negative logarithm of the IC50 (pIC50) was 5.47.
